Biological target: T1, Broad substrate specificity ATP-binding cassette transporter ABCG2 (Homo sapiens, UniProt Q9UNQ0)
T1 sequence (Q9UNQ0 whole entry): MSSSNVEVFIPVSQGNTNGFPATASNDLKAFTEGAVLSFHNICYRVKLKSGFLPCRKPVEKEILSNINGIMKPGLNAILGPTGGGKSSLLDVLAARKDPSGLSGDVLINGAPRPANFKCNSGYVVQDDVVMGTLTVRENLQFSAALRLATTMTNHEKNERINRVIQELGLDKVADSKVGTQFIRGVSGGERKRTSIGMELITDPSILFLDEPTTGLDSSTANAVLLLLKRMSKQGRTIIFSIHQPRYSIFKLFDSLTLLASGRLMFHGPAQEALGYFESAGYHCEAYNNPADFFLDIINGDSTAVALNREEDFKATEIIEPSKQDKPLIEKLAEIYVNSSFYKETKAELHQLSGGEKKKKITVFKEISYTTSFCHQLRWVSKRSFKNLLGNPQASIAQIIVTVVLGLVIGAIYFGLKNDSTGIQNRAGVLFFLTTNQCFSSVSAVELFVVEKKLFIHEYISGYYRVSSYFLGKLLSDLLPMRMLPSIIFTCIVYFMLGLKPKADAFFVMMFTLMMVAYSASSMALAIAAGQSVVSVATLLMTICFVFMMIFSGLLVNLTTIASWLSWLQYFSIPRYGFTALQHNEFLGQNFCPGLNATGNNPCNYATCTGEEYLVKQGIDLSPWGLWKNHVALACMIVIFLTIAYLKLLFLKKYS
Experiment: TP_TRANSPORTER: uptake in BCRP-expressing oocyte cells
Assay type: functional, cell-based
Details: xenopus laevis

Row | Activity | Compound
1 | substrate [] | CN1CC[C@H](c2c(O)cc(O)c3c(=O)cc(-c4ccccc4Cl)oc23)[C@H](O)C1 [ALVOCIDIB]
2 | substrate [] | COc1cccc2c1C(=O)c1c(O)c3c(c(O)c1C2=O)C[C@@](O)(C(C)=O)C[C@@H]3O[C@H]1C[C@H](N)[C@H](O)[C@H](C)O1 [DAUNORUBICIN]
3 | substrate [] | COC(=O)c1ccccc1-c1c2ccc(=N)cc-2oc2cc(N)ccc12.Cl [RHODAMINE123]

Row | Compound | Activity
4 | O=C1c2c(O)ccc(O)c2C(=O)c2c(NCCNCCO)ccc(NCCNCCO)c21 [MITOXANTRONE] | substrate []

Source: ChEMBL document CHEMBL2074207, “Functional characterization of human breast cancer resistance protein (BCRP, ABCG2) expressed in the oocytes of Xenopus laevis” (Mol Pharmacol, 2003)
